{"source": "paper PMC8032764", "about": "(Scientific Reports, 2021)", "key": {"Bradykinin B2": {"system": "T1, Bradykinin B2", "T1 construct": "purchased Eurofins Cerep", "test": "Cerep binding", "parameters": "species or system human", "details": "10 μM; [3H]bradykinin; hum. recomb. (CHO)"}, "healthy male subjects": {"system": "healthy male subjects", "test": "Study WP25366 multiple-ascending dose, safety EEG and plasma exposure", "type": "in vivo, human", "description": "2) Study WP25366 Multiple-Ascending Dose (MAD) in Healthy Volunteers\nOf the 32 healthy male subjects who were randomized to treatment, 24 subjects were […]\nparticipants had several EEGs and several participants had sleep assessments with EEG that were also evaluated:\n• Cohort 1: 80 mg (n dosed: 6)\n• Cohort 2: 160 mg (n dosed: 6)\n• Cohort 3: 370 mg (n dosed: 6)\n• Cohort 4: 1000 mg (n dosed: 6)\nEEG monitoring was implemented in this study starting at about 1 hour prior to dosing and then up to approximately 7 hours after dosing, on selected days during the dosing period. All sleep recordings were performed for approximately 8 h from 23.00 to 07.00. The objective of such monitoring was detection if any, of specific EEG patterns such as spikes, sharp waves, and spike-and-wave discharges that would be indicative of epileptiform changes or non - […]\nThe day and night EEG recordings were subject to expert safety review, with the objective of identifying any pro-convulsive signals. Following this safety review, EEG results were recorded either as normal, normal variant or abnormal variant. […]\nof epileptogenic effects (e.g., generalized spike-wave discharges) in any subject in any dose group at any time points during the study. The review of the day and night EEG recordings […]\n160 mg BID, 370 mg BID and 1000 mg BID, was safe and ha d no impact on brain electrical activity. Maximum plasma concentrations at Day 13 were 2120, 4110, 6040, and […]\n3) Study WP29402 Drug-Drug Interaction (DDI) Itraconazole in Healthy Volunteers This was an open-label, three treatment, fixed sequence crossover study to investigate the […]\nhealthy male and female volunteers (age range 18-60 years; n: 12). As systemic basmisanil exposure was predicted to be higher than exposures achiev ed in previous clinical studies, regular EEG examinations were included and reviewed by a neurologist. Multiple oral doses […]\nwith the CYP3A inhibitor, itraconazole (200 m g OD).\nBaseline EEG assessments were performed prior to the study (resting EEG eyes open/closed, intermittent photic stimulation, hyperventilation). On treatment days (1, 3, 5, 8) […]\nhours and resting EEG eyes open/closed w ere performed. […]\nadministered with itraconazole."}, "[1]": {"system": "T2, Benzodiazepine (peripheral)", "T2 construct": "tissue Eurofins Cerep SA; host or cells: rat heart", "test": "Cerep binding", "details": "10 μM; [3H]PK 11195; rat heart"}, "GABA (non-selective)": {"system": "GABA (non-selective)", "test": "Cerep binding", "details": "10 μM; [3H]GABA; rat cerebral cortex"}, "Na+ channel (site 2)": {"system": "Na+ channel (site 2)", "test": "Cerep binding", "details": "10 μM; [3H]batrachotoxinin; rat cerebral cortex"}, "[2]": {"test": "Plasma concentration in PET study", "type": "in vivo", "details": "human", "description": "The study was single-blind, i.e., subjects were blinded to dose. Blood sampling was performed at four different timepoints starting 30 min before the post dose PET scan."}, "GABAA-α5 receptors": {"target": "T3, GABAA-α5 receptors (Homo sapiens, UniProt P18507+P31644)", "T3 construct": "occupancy at the GABAA-α5 subunit-containing receptors in the human brain after oral dosing; from tissue; host or cells: brain of healthy human volunteers, in vivo PET", "T3 sequence (P31644 32-462)": "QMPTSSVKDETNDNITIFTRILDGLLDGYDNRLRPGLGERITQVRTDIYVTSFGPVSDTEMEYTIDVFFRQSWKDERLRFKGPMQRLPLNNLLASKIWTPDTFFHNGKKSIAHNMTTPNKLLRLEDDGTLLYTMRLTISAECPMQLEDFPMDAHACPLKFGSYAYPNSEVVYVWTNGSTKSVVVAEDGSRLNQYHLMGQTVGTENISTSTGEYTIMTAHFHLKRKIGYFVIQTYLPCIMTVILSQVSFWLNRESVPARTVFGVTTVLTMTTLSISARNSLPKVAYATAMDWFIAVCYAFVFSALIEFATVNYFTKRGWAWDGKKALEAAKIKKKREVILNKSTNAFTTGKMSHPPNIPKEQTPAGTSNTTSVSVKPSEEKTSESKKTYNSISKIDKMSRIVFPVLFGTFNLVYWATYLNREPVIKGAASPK", "T3 sequence (P18507 40-467 limits assumed)": "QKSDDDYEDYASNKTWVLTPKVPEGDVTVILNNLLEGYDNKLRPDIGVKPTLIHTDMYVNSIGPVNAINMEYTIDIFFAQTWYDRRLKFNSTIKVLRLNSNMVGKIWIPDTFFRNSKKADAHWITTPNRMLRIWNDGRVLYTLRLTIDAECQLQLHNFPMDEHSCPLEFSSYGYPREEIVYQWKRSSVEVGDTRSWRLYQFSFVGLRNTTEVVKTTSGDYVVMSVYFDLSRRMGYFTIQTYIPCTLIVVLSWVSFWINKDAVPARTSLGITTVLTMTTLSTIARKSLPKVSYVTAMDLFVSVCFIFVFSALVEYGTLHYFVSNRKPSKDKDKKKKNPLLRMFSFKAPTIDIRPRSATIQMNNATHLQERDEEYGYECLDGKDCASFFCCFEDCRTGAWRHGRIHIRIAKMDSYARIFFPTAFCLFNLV", "T3 sequence (P28472 26-473 partner)": "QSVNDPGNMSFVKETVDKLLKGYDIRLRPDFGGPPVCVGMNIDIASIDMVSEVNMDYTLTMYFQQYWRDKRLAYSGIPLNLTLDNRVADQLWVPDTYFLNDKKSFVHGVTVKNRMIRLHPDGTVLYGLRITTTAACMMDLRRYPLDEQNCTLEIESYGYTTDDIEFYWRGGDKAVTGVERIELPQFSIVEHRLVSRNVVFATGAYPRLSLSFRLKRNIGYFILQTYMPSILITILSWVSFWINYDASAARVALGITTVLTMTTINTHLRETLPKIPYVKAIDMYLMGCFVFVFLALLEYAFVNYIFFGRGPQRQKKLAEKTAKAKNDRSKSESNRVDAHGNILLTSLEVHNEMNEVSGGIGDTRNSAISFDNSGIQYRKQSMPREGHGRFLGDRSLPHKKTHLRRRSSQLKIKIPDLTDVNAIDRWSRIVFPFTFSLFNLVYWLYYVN", "test": "Receptor occupancy during EEG assessments", "type": "in vivo", "details": "240 mg twice daily"}, "Chemokine CCR1": {"system": "T4, Chemokine CCR1", "T4 construct": "purchased Eurofins Cerep", "test": "Cerep binding", "parameters": "species or system human", "details": "10 μM; [125I]MIP-1a; hum. recomb. (HEK-293)"}}, "note": "Like-named read-outs stand apart in the source and are kept apart here.", "data": [{"compound": "Cc1onc(-c2ccc(F)cc2)c1COc1ccc(C(=O)N2CCS(=O)(=O)CC2)cn1", "note": "[basmisanil]", "values": [{"measurement": "% Inhibition", "setting": "Bradykinin B2", "result": 14, "unit": "%"}, {"measurement": "Maximum plasma concentration at Day 13", "setting": "healthy male subjects; 80 mg BID", "result": 2120, "unit": "ng/mL"}, {"measurement": "Maximum plasma concentration at Day 13", "setting": "healthy male subjects; 160 mg BID", "result": 4110, "unit": "ng/mL"}, {"measurement": "Maximum plasma concentration at Day 13", "setting": "healthy male subjects; 370 mg BID", "result": 6040, "unit": "ng/mL"}, {"measurement": "Maximum plasma concentration at Day 13", "setting": "healthy male subjects; 1000 mg BID", "result": 8520, "unit": "ng/mL"}, {"measurement": "EEG assessments", "setting": "healthy male subjects; 80, 160, 370 and 1000 mg BID", "result": "revealed no findings of clinical concern"}, {"measurement": "% Inhibition", "setting": "[1]", "result": -10, "unit": "%"}, {"measurement": "% Inhibition", "setting": "GABA (non-selective)", "result": -1, "unit": "%"}, {"measurement": "% Inhibition", "setting": "Na+ channel (site 2)", "result": 0, "unit": "%"}, {"measurement": "concentration at 3.75 h", "setting": "[2]; subject 11010, 40 mg, 3.75 h prior to scan", "result": 592, "unit": "ng/mL"}, {"measurement": "concentration at 3.12 h", "setting": "[2]; subject 11020, 160 mg, 3.12 h prior to scan", "result": 2280, "unit": "ng/mL"}, {"measurement": "concentration at 3 h", "setting": "[2]; subject 11021, 160 mg, 3.00 h prior to scan", "result": 2550, "unit": "ng/mL"}, {"measurement": "concentration at 2.63 h", "setting": "[2]; subject 13010, 40 mg, 2.63 h prior to scan", "result": 422, "unit": "ng/mL"}, {"measurement": "concentration at 4.75 h", "setting": "[2]; subject 13030, 1000 mg, 4.75 h prior to scan", "result": 2200, "unit": "ng/mL"}, {"measurement": "concentration at 4.77 h", "setting": "[2]; subject 13031, 1000 mg, 4.77 h prior to scan", "result": 3350, "unit": "ng/mL"}, {"measurement": "concentration at 1.48 h", "setting": "[2]; subject 13040, 20 mg, 1.48 h prior to scan", "result": 111, "unit": "ng/mL"}, {"measurement": "concentration at 2.2 h", "setting": "[2]; subject 13041, 20 mg, 2.20 h prior to scan", "result": 398, "unit": "ng/mL"}, {"measurement": "concentration at 2.43 h", "setting": "[2]; subject 13050, 80 mg, 2.43 h prior to scan", "result": 1000, "unit": "ng/mL"}, {"measurement": "receptor occupancy at 240 mg", "setting": "GABAA-α5 receptors; 14 days, read-out: occupancy of GABAA-α5 receptors", "result": "> 90", "unit": "%"}, {"measurement": "receptor occupancy at 240 mg", "setting": "GABAA-α5 receptors; day 14, 1 h post morning dose, read-out: receptor occupancy", "result": "92 ± 3", "unit": "%"}, {"measurement": "receptor occupancy at 240 mg", "setting": "GABAA-α5 receptors; day 14, 4 h post morning dose, read-out: receptor occupancy", "result": "94 ± 1.5", "unit": "%"}, {"measurement": "% Inhibition", "setting": "Chemokine CCR1", "result": -2, "unit": "%"}]}]}
